In ChEMBL document CHEMBL1130944, “Exploring structure-activity relationships around the phosphomannose isomerase inhibitor AF14049 via combinatorial synthesis” (Bioorg Med Chem Lett, 1998):
≈ marks a conversion by molar mass, not a printed value.

Legend:
[1] = target: T1, Mannose-6-phosphate isomerase (Candida albicans (strain SC5314 / ATCC MYA-2876) (Yeast), UniProt P34948); assay: Inhibition of phosphomannose isomerase enzyme of Candida albicans (CaPMI)
T1 sequence (P34948 whole entry): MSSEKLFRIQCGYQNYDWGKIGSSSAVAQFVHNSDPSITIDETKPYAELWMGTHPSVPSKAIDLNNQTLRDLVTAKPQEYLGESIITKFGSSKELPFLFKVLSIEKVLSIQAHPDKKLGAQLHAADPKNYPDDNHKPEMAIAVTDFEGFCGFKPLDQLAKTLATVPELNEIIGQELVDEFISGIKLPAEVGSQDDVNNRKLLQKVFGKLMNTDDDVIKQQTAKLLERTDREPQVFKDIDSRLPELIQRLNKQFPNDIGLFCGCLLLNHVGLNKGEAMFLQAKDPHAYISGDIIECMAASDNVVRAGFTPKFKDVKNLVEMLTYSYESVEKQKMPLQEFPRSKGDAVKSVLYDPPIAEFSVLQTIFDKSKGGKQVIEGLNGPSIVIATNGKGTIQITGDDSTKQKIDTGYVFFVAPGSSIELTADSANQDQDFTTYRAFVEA

[2] = target: Mannose-6-phosphate isomerase (Saccharomyces cerevisiae) (UniProt P29952); assay: Compound was evaluated for the inhibition of yeast phosphomannose isomerase (PMI) at a concentration of 300 uM; inactive
[3] = Compound was tested for inhibition of porcine phosphomannose isomerase (PMI); design: species or system Sus scrofa
[4] = target: T2, Mannose-6-phosphate isomerase (Homo sapiens, UniProt P34949); assay: Compound was tested for inhibition of human phosphomannose isomerase (PMI)
T2 sequence (P34949 whole entry): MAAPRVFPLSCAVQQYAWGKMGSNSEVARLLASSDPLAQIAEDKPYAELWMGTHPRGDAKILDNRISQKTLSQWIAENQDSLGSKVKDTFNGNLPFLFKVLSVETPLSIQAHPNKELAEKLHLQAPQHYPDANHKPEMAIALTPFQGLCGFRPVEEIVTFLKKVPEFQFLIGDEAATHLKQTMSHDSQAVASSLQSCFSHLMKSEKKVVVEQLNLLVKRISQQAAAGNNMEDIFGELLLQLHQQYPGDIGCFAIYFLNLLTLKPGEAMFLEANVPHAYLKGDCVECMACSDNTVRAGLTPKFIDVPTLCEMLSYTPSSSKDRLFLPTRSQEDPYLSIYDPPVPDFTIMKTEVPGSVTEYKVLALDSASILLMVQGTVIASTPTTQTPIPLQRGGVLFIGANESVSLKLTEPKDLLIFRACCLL

Saccharomyces cerevisiae [5] = assay: Compound was evaluated for the minimum inhibitory concentration against Saccharomyces cerevisiae; type: functional
[6] = target: T2, Mannose-6-phosphate isomerase; assay: Compound was evaluated for the inhibition constant against human phosphomannose isomerase (huPMI)
Candida albicans = assay: Compound was evaluated for the minimum inhibitory concentration against Candida albicans; type: functional
Saccharomyces cerevisiae [7] = assay: Compound was evaluated for the minimum inhibitory concentration against Invsc 1, a wild type strain of Saccharomyces cerevisiae; type: functional

Mannose-6-phosphate isomerase (Saccharomyces cerevisiae), sequence (P29952 whole entry, looked up): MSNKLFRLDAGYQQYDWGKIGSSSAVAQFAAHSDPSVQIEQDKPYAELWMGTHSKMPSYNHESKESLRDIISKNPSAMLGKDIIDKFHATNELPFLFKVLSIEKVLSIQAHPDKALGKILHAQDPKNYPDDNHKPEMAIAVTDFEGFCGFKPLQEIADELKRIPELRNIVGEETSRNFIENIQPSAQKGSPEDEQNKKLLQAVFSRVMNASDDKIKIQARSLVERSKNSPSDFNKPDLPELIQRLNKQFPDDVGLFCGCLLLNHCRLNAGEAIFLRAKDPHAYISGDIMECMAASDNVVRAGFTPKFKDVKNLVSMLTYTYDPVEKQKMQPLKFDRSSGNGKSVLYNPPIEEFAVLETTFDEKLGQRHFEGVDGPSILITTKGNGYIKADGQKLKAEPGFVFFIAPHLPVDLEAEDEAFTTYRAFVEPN

Row | SMILES | IC50 [1] [µM] | further results
1 | NC(=O)C1(NC(=O)CCCOc2ccc(Cl)cc2Cl)CCc2ccccc21 (centres undefined) | > 200 | –
2 | NC(=O)C1(NC(=O)CCCNc2ccc(Cl)cc2Cl)Cc2ccccc2C1 | 50 | –
3 | NC(=O)C1(NC(=O)CCCOc2ccc(Cl)cc2Cl)CCCC1 | > 200 | –
4 | COC(=O)C1(NC(=O)CCCOc2ccc(Cl)c(Cl)c2)Cc2ccc3ccccc3c2C1 (centres undefined) | > 200 | –
5 | O=C(CCCOc1ccc(Cl)cc1Cl)NC1(C(=O)NO)CCc2ccccc21 (centres undefined) | – | IC50 [2]: Not Active
6 | NC(=O)C1(NC(=O)CCCOc2ccc(Cl)cc2Cl)CCc2ccccc2C1 (centres undefined) | 93 | –
7 | COC(=O)c1ccc2c(c1)CC(NC(=O)CCCOc1ccc(Cl)c(Cl)c1)(C(=O)OC)C2 (centres undefined) | > 200 | –
8 | O=C(CCCOc1ccc(Cl)cc1Cl)NC1(C(=O)O)Cc2ccccc2C1 | > 500 | –
9 | NC(=O)C1Cc2ccccc2CN1C(=O)CCCOc1ccc(Cl)cc1Cl (centres undefined) | > 200 | –
10 | NNC(=O)C1(NC(=O)CCCOc2ccc(Cl)cc2Cl)Cc2ccccc2C1 | 40 | –
11 | O=CC(O)C(O)COP(=O)(O)O (centres undefined) | – | IC50 [3]: 100 µM; IC50 [4]: 100 µM
12 | O=C(CCCOc1ccc(Cl)cc1Cl)NC1(CO)Cc2ccccc2C1 | 140 | –
13 | O=C(CCCOc1ccc(Cl)cc1Cl)NC1Cc2ccccc2C1 | > 200 | –
14 | CC(Cc1ccccc1)(NC(=O)CCCOc1ccc(Cl)cc1Cl)C(N)=O (centres undefined) | > 200 | –
15 | COC(=O)C1(NC(=O)CCCOc2ccc(Cl)c(Cl)c2)Cc2cc3ccccc3cc2C1 | > 200 | –
16 | O=C(CCCSc1ccc(Cl)c(Cl)c1)NC1(C(=O)NO)Cc2ccccc2C1 | – | MIC (Saccharomyces cerevisiae [5]): 80 µM (≈ 35.1 µg/mL); Ki [6]: 26 µM; MIC (Candida albicans): 100 µM (≈ 43.9 µg/mL); MIC (Saccharomyces cerevisiae [7]): 100 µM (≈ 43.9 µg/mL)
17 | Cc1cc(OCCCC(=O)NC2(C(N)=O)Cc3ccccc3C2)ccc1Cl | 50 | –

Continued by falling IC50 [1], values first:

Row | IC50 [1] [µM] | SMILES | further results
18 | 39 | O=C(CCCOc1ccc(Cl)cc1Cl)NC1(C(=O)NO)Cc2ccccc2C1 | –
19 | 34 | COC(=O)C1(NC(=O)CCCOc2ccc(Cl)cc2Cl)Cc2ccccc2C1 | –
20 | 34 | CNC(=O)C1(NC(=O)CCCOc2ccc(Cl)cc2Cl)Cc2ccccc2C1 | –
21 | 30 | NC(=O)C1(NC(=O)CCCOc2cc(Cl)c(Cl)cc2Cl)Cc2ccccc2C1 | –
22 | 21 | NC(=O)C1(NC(=O)CCCNc2ccc(Cl)c(Cl)c2)Cc2ccccc2C1 | –
23 | 15 | NC(=O)C1(NC(=O)CCCOc2ccc(Cl)c(Cl)c2)Cc2ccccc2C1 | –
24 | 14 | NC(=O)C1(NC(=O)CCCSc2ccc(Cl)cc2Cl)Cc2ccccc2C1 | –
25 | 6 | NC(=O)C1(NC(=O)CCCSc2ccc(Cl)c(Cl)c2)Cc2ccccc2C1 | –
